Experimental data as given in PubChem BioAssay AID1845202 (Molecular Pharmacology Branch, DTP, NCI, 2023).
Where “and” joins values, the source holds several entries; their conditions need not be identical. Identical values can stand only once.

Test system: DMS 114 tumor spheroids, viability % test/control
Assay: Anticancer human tumor DMS 114 cell line growth inhibition;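 also: spheroids exposed to compounds for 7 days before read-out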;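 as to viability, T/C: luminescence used as a proxy for viable cells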
Conditions: spheroids with HUVEC and MSC; for viability, T/C: stronger effect = lower value
In short: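 Complex tumor spheroids combined malignant cells with endothelial cells and mesenchymal stem cells. DNA-damaging drugs and DNA repair inhibitors were tested alone and in combination, at half-log dilutions down from clinical Cmax (top 10 microM if Cmax unknown), 0.25% DMSO final.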

O=C(c1cc(Cc2n[nH]c(=O)c3ccccc23)ccc1F)N1CCN(C(=O)C2CC2)CC1 + Cn1nnc2c(C(N)=O)ncn2c1=O
IC50 (curve of first compound, second compound 1 µM): 20 µM
IC50 (curve of first compound, second compound 3.16 µM): 21.9 µM
IC50 (curve of first compound, second compound 10 µM): 10.2 µM
IC50 (curve of first compound, second compound 31.6 µM): 2.66 µM
IC50 (curve of first compound, second compound 100 µM): 0.252 µM
viability, T/C (second compound 1 µM, first compound 0.0949 µM): 106%
viability, T/C (second compound 1 µM, first compound 0.3 µM): 99.2%
viability, T/C (second compound 1 µM, first compound 0.949 µM): 105%
viability, T/C (second compound 1 µM, first compound 3 µM): 106%
viability, T/C (second compound 1 µM, first compound 9.49 µM): 73.9%
viability, T/C (second compound 1 µM, first compound 30 µM): 37%
viability, T/C (second compound 3.16 µM, first compound 0.0949 µM): 112%
viability, T/C (second compound 3.16 µM, first compound 0.3 µM): 109%
viability, T/C (second compound 3.16 µM, first compound 0.949 µM): 108%
viability, T/C (second compound 3.16 µM, first compound 3 µM): 102%
viability, T/C (second compound 3.16 µM, first compound 9.49 µM): 68.5%
viability, T/C (second compound 3.16 µM, first compound 30 µM): 43.1%
viability, T/C (second compound 10 µM, first compound 0.0949 µM): 120%
viability, T/C (second compound 10 µM, first compound 0.3 µM): 111%
viability, T/C (second compound 10 µM, first compound 0.949 µM): 118%
viability, T/C (second compound 10 µM, first compound 3 µM): 81.6%
viability, T/C (second compound 10 µM, first compound 9.49 µM): 54.3%
viability, T/C (second compound 10 µM, first compound 30 µM): 30.1%
viability, T/C (second compound 31.6 µM, first compound 0.0949 µM): 110%
viability, T/C (second compound 31.6 µM, first compound 0.3 µM): 103%
viability, T/C (second compound 31.6 µM, first compound 0.949 µM): 83.7%
viability, T/C (second compound 31.6 µM, first compound 3 µM): 46.2%
viability, T/C (second compound 31.6 µM, first compound 9.49 µM): 28.1%
viability, T/C (second compound 31.6 µM, first compound 30 µM): 25.8%
viability, T/C (second compound 100 µM, first compound 0.0949 µM): 60.2%
viability, T/C (second compound 100 µM, first compound 0.3 µM): 48.7%
viability, T/C (second compound 100 µM, first compound 0.949 µM): 32.9%
viability, T/C (second compound 100 µM, first compound 3 µM): 25.4%
viability, T/C (second compound 100 µM, first compound 9.49 µM): 21.1%
viability, T/C (second compound 100 µM, first compound 30 µM): 19%

Cc1cc(C)c(CNC(=O)c2cc(-c3ccc(CN4CCOCC4)cc3)cc3c2cnn3C2CCCC2)c(=O)[nH]1 + COc1cc2c(cc1O)CCNC21CSC2c3c(OC(C)=O)c(C)c4c(c3C(COC1=O)N1C(O)C3Cc5cc(C)c(OC)c(O)c5C(C21)N3C)OCO4
IC50 (curve of first compound, second compound 30 pM): > 10 µM
IC50 (curve of first compound, second compound 94.9 pM): > 10 µM
IC50 (curve of first compound, second compound 0.0003 µM): < 0.0316 µM
IC50 (curve of first compound, second compound 0.000949 µM): < 0.0316 µM
IC50 (curve of first compound, second compound 0.003 µM): < 0.0316 µM
viability, T/C (second compound 30 pM, first compound 0.0316 µM): 112%
viability, T/C (second compound 30 pM, first compound 0.1 µM): 100%
viability, T/C (second compound 30 pM, first compound 0.316 µM): 104%
viability, T/C (second compound 30 pM, first compound 1 µM): 113%
viability, T/C (second compound 30 pM, first compound 3.16 µM): 115%
viability, T/C (second compound 30 pM, first compound 10 µM): 73.2%
viability, T/C (second compound 94.9 pM, first compound 0.0316 µM): 113%
viability, T/C (second compound 94.9 pM, first compound 0.1 µM): 108%
viability, T/C (second compound 94.9 pM, first compound 0.316 µM): 112%
viability, T/C (second compound 94.9 pM, first compound 1 µM): 102%
viability, T/C (second compound 94.9 pM, first compound 3.16 µM): 98.6%
viability, T/C (second compound 94.9 pM, first compound 10 µM): 52.1%
viability, T/C (second compound 0.0003 µM, first compound 0.0316 µM): 40.1%
viability, T/C (second compound 0.0003 µM, first compound 0.1 µM): 35.8%
viability, T/C (second compound 0.0003 µM, first compound 0.316 µM): 48.1%
viability, T/C (second compound 0.0003 µM, first compound 1 µM): 38.8%
viability, T/C (second compound 0.0003 µM, first compound 3.16 µM): 41.4%
viability, T/C (second compound 0.0003 µM, first compound 10 µM): 35.6%
viability, T/C (second compound 0.000949 µM, first compound 0.0316 µM): 2.74%
viability, T/C (second compound 0.000949 µM, first compound 0.1 µM): 3.63%
viability, T/C (second compound 0.000949 µM, first compound 0.316 µM): 3.61%
viability, T/C (second compound 0.000949 µM, first compound 1 µM): 3.83%
viability, T/C (second compound 0.000949 µM, first compound 3.16 µM): 3.94%
viability, T/C (second compound 0.000949 µM, first compound 10 µM): 4.03%
viability, T/C (second compound 0.003 µM, first compound 0.0316 µM): 0.31%
viability, T/C (second compound 0.003 µM, first compound 0.1 µM): 0.33%
viability, T/C (second compound 0.003 µM, first compound 0.316 µM): 0.32%
viability, T/C (second compound 0.003 µM, first compound 1 µM): 0.44%
viability, T/C (second compound 0.003 µM, first compound 3.16 µM): 0.34%
viability, T/C (second compound 0.003 µM, first compound 10 µM): 0.4%

O=C(c1cc(Cc2n[nH]c(=O)c3ccccc23)ccc1F)N1CCN(C(=O)C2CC2)CC1
viability, T/C (compound 0.0949 µM): 105% and 104% and 97.3%
viability, T/C (compound 0.3 µM): 104% (2×) and 102%
viability, T/C (compound 0.949 µM): 107% and 98.7% and 106%
viability, T/C (compound 3 µM): 109% and 107% and 102%
viability, T/C (compound 9.49 µM): 70.7% and 53.2% and 55.8%
viability, T/C (compound 30 µM): 48.5% and 29.6% and 26.8%
IC50 (curve of compound): 27.7 µM and 11.1 µM and 12 µM
